Data as given in the supplement of paper PMC11061612.

How the values were obtained:
Assay in all cases: combination Emax (second highest fraction inhibited in the dose matrix, 72 h); higher = more inhibition; extreme values may be limits of the assay
[1] = tested on: SLVL (B-Cell Non-Hodgkin's Lymphoma)
Method in brief: (§1)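 Bliss excess equals the observed combination effect minus the expected value EA + EB − EA·EB, where EA and EB are the effects of each agent alone. Combination Emax is the second-highest inhibition within the matrix. Inhibition was scaled from CellTiter-Glo 2.0 luminescence, with 0 set by vehicle wells and 1 by blank wells, after 72 hours of two-drug dosing of cells plated in 1536-well plates.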

[2] = tested on: SKN-3 (Head and Neck Carcinoma)
Method in brief: as §1

[3] = tested on: BICR78 (Oral Cavity Carcinoma)
Method in brief: as §1

[4] = tested on: SW48 (Colorectal Carcinoma)
Method in brief: as §1

[5] = tested on: U-118-MG (Low Grade Glioma)
Method in brief: as §1

[6] = tested on: SK-LMS-1 (Other Solid Carcinomas)
Method in brief: as §1

[7] = tested on: P31-FUJ (Acute Myeloid Leukemia)
Method in brief: as §1

A172 (Glioblastoma) = tested on: A172 (Glioblastoma)
Method in brief: as §1

[8] = tested on: HCT-116 (Colorectal Carcinoma)
Method in brief: as §1

[9] = tested on: ETK-1 (Biliary Tract Carcinoma)
Method in brief: as §1

[10] = tested on: WSU-DLCL2 (B-Cell Non-Hodgkin's Lymphoma)
Method in brief: as §1

[11] = tested on: SNU-61 (Colorectal Carcinoma)
Method in brief: as §1

[12] = tested on: MEG-01 (Chronic Myelogenous Leukemia)
Method in brief: as §1

MCF7 (Breast Carcinoma) = tested on: MCF7 (Breast Carcinoma)
Method in brief: as §1

[13] = tested on: NOMO-1 (Acute Myeloid Leukemia)
Method in brief: as §1

Saos-2 (Osteosarcoma) = tested on: Saos-2 (Osteosarcoma)
Method in brief: as §1

[14] = tested on: TYK-nu (Ovarian Carcinoma)
Method in brief: as §1

[15] = tested on: 647-V (Bladder Carcinoma)
Method in brief: as §1

HCC38 (Breast Carcinoma) = tested on: HCC38 (Breast Carcinoma)
Method in brief: as §1

[16] = tested on: RCC10RGB (Kidney Carcinoma)
Method in brief: as §1

Row | Compound | combination Emax [1] | combination Emax [2] | combination Emax [3] | combination Emax [4] | combination Emax [5] | combination Emax [6] | combination Emax [7] | combination Emax (A172 (Glioblastoma)) | combination Emax [8] | combination Emax [9] | combination Emax [10] | combination Emax [11] | combination Emax [12] | combination Emax (MCF7 (Breast Carcinoma)) | combination Emax [13] | combination Emax (Saos-2 (Osteosarcoma)) | combination Emax [14] | combination Emax [15] | combination Emax (HCC38 (Breast Carcinoma)) | combination Emax [16]
1 | NC1(C(=O)N[C@@H](CCO)c2ccc(Cl)cc2)CCN(c2ncnc3[nH]ccc23)CC1 [Capivasertib] + CC(C)n1c(=O)n(C)c2cnc3cc(F)c(-c4ccc(OCCCN5CCCCC5)nc4)cc3c21 [AZD1390] (first compound max 10 µM, 7x7, partner max 0.3 µM) | 0.637 | 0.2 | 0.368 | 0.497 | 0.47 | 0.324 | 0.645 | 0.226 | 0.373 | 0.331 | 1 | 0.146 | 0.256 | 0.459 | 0.429 | 0.473 | 0.309 | 0.22 | 0.352 | 0.2
2 | NC1(C(=O)N[C@@H](CCO)c2ccc(Cl)cc2)CCN(c2ncnc3[nH]ccc23)CC1 [Capivasertib] + CCN(CCO)CCCOc1ccc2c(Nc3cc(CC(=O)Nc4cccc(F)c4)[nH]n3)ncnc2c1 [AZD2811] (first compound max 10 µM, 7x7, partner max 1 µM) | 0.667 | 0.23 | 0.392 | 0.983 | 0.603 | 0.457 | 0.952 | 0.52 | 0.587 | 0.381 | 1 | 0.242 | 0.638 | 0.639 | 0.735 | 0.586 | 0.357 | 0.309 | 0.359 | 0.292
3 | NC1(C(=O)N[C@@H](CCO)c2ccc(Cl)cc2)CCN(c2ncnc3[nH]ccc23)CC1 [Capivasertib] + COc1nnc2ccc(N3CCC(c4ccc(OCCN5CCN(C)C(=O)[C@H]5C)cc4)CC3)nn12 [AZD5153] (first compound max 10 µM, 7x7, partner max 1 µM) | 0.764 | 0.581 | 0.636 | 0.828 | 0.658 | 0.609 | 1 | 0.472 | 0.813 | 0.503 | 1 | 0.303 | 0.877 | 0.754 | 1 | 0.554 | 0.632 | 0.502 | 0.461 | 0.518
4 | NC1(C(=O)N[C@@H](CCO)c2ccc(Cl)cc2)CCN(c2ncnc3[nH]ccc23)CC1 [Capivasertib] + C[C@@H]1COCCN1C2=NC(=NC(=C2)C3(CC3)[S@](=N)(=O)C)C4=C5C=CNC5=NC=C4 [AZD6738] (first compound max 10 µM, 7x7, partner max 10 µM) | 0.845 | 0.566 | 0.628 | 0.759 | 0.685 | 0.566 | 0.971 | 0.779 | 0.765 | 0.695 | 1 | 0.309 | 0.945 | 0.731 | 0.968 | 0.586 | 0.728 | 0.76 | 0.621 | 0.469
5 | NC1(C(=O)N[C@@H](CCO)c2ccc(Cl)cc2)CCN(c2ncnc3[nH]ccc23)CC1 [Capivasertib] + Cn1cnc2c(F)c(Nc3ccc(Br)cc3Cl)c(C(=O)NOCCO)cc21 [Selumetinib] (first compound max 10 µM, 7x7, partner max 10 µM) | 0.806 | 0.426 | 0.548 | 0.556 | 0.663 | 0.668 | 0.931 | 0.48 | 0.877 | 0.48 | 1 | 0.46 | 0.825 | 0.519 | 0.948 | 0.46 | 0.667 | 0.3 | 0.29 | 0.483
6 | Cc1nc(Nc2ncc(C(=O)Nc3c(C)cccc3Cl)s2)cc(N2CCN(CCO)CC2)n1 [Dasatinib] + CC(=O)Nc1cccc(-n2c(=O)n(C3CC3)c(=O)c3c(Nc4ccc(I)cc4F)n(C)c(=O)c(C)c32)c1 [Trametinib] (first compound max 2 µM, 7x7, partner max 1 µM) | 0.663 | 0.575 | 0.435 | 0.959 | 0.557 | 0.645 | 0.65 | 0.512 | 0.979 | 0.781 | 0.432 | 0.626 | 1 | 0.112 | 0.861 | 0.335 | 0.71 | 0.483 | 0.285 | 0.667
7 | COc1cccc2c1C(=O)c1c(O)c3c(c(O)c1C2=O)C[C@@](O)(C(=O)CO)C[C@@H]3O[C@H]1C[C@H](N)[C@H](O)[C@H](C)O1 [Doxorubicin] + Cc1cc2ncnn2cc1Nc1ncc2c(n1)n(C1CCOCC1)c(=O)n2C [AZD7648] (first compound max 1 µM, 7x7, partner max 10 µM) | 0.975 | 0.32 | 0.748 | 0.94 | 0.715 | 0.82 | 0.995 | 0.94 | 0.918 | 0.562 | 1 | 0.321 | 0.867 | 0.623 | 0.966 | 0.862 | 0.704 | 0.958 | 0.555 | 0.29
